System: 422866-222-R5-J1-PDC complex spheroid viability
Experiment: Anticancer human tumor 422866-222-R5-J1-PDC patient-derived pancreatic adenocarcinoma cell line growth inhibition [POLQ]
Details: for IC50: curve of first compound; for viability, T/C: stronger effect = lower value
Summary of the method: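 Patient-derived tumour cells were co-cultured with HUVEC and mesenchymal stem cells as multicellular spheroids at 37 °C. They were treated with POLQ inhibitors (novobiocin, ART-558, RP6685) alone or combined with other agents. Top concentrations were at or near clinical Cmax (otherwise 10 microM; SN-38 at 1 microM), decreasing in half-log steps.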

[1] = second compound 0.0316 µM, first compound 0.0316 µM
[2] = second compound 0.0316 µM, first compound 0.1 µM
[3] = second compound 0.0316 µM, first compound 0.316 µM
[4] = second compound 0.0316 µM, first compound 1 µM
[5] = second compound 0.0316 µM, first compound 3.16 µM
[6] = second compound 0.0316 µM, first compound 10 µM
[7] = second compound 0.1 µM, first compound 0.0316 µM
[8] = second compound 0.1 µM, first compound 0.1 µM
[9] = second compound 0.1 µM, first compound 0.316 µM
[10] = second compound 0.1 µM, first compound 1 µM
[11] = second compound 0.1 µM, first compound 3.16 µM
[12] = second compound 0.1 µM, first compound 10 µM
[13] = second compound 0.316 µM, first compound 0.0316 µM
[14] = second compound 0.316 µM, first compound 0.1 µM
[15] = second compound 0.316 µM, first compound 0.316 µM
[16] = second compound 0.316 µM, first compound 1 µM
[17] = second compound 0.316 µM, first compound 3.16 µM
[18] = second compound 0.316 µM, first compound 10 µM
[19] = second compound 1 µM, first compound 0.0316 µM
[20] = second compound 1 µM, first compound 0.1 µM
[21] = second compound 1 µM, first compound 0.316 µM
[22] = second compound 1 µM, first compound 1 µM
[23] = second compound 1 µM, first compound 3.16 µM
[24] = second compound 1 µM, first compound 10 µM
[25] = second compound 3.16 µM, first compound 0.0316 µM
[26] = second compound 3.16 µM, first compound 0.1 µM
[27] = second compound 3.16 µM, first compound 0.316 µM
[28] = second compound 3.16 µM, first compound 1 µM
[29] = second compound 3.16 µM, first compound 3.16 µM
[30] = second compound 3.16 µM, first compound 10 µM
[31] = second compound 10 µM, first compound 0.0316 µM
[32] = second compound 10 µM, first compound 0.1 µM
[33] = second compound 10 µM, first compound 0.316 µM
[34] = second compound 10 µM, first compound 1 µM
[35] = second compound 10 µM, first compound 3.16 µM
[36] = second compound 10 µM, first compound 10 µM
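Also: spheroids exposed to compounds for one week before readout.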
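For viability, T/C in this document: percent of DMSO vehicle wells luminescence so 100% = untreated viability.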

SMILES: COc1cccc2c1C(=O)c1c(O)c3c(c(O)c1C2=O)CC(O)(C(=O)CO)CC3OC1CC(N)C(O)C(C)O1 (centres undefined) + Nc1ccc(C#CCN(C(=O)Cc2ncc(C(F)(F)F)cc2C(F)(F)F)c2ccc(F)cc2)nn1
- IC50 (second compound 0.0316 µM): 65.9 nM
- IC50 (second compound 0.1 µM): 118 nM
- IC50 (second compound 0.316 µM): 67.7 nM
- IC50 (second compound 1 µM): 81 nM
- IC50 (second compound 3.16 µM): 92.3 nM
- IC50 (second compound 10 µM): 142 nM
- viability, T/C [1]: 60%
- viability, T/C [2]: 44.3%
- viability, T/C [3]: 32.5%
- viability, T/C [4]: 30.2%
- viability, T/C [5]: 34.6%
- viability, T/C [6]: 28.3%
- viability, T/C [7]: 52.7%
- viability, T/C [8]: 54.3%
- viability, T/C [9]: 28.9%
- viability, T/C [10]: 33.3%
- viability, T/C [11]: 29.6%
- viability, T/C [12]: 27.2%
- viability, T/C [13]: 58.4%
- viability, T/C [14]: 45.2%
- viability, T/C [15]: 35.1%
- viability, T/C [16]: 24.8%
- viability, T/C [17]: 28.6%
- viability, T/C [18]: 26.6%
- viability, T/C [19]: 59.2%
- viability, T/C [20]: 47.7%
- viability, T/C [21]: 34.4%
- viability, T/C [22]: 26.4%
- viability, T/C [23]: 28.6%
- viability, T/C [24]: 30.8%
- viability, T/C [25]: 57.7%
- viability, T/C [26]: 49.3%
- viability, T/C [27]: 31.5%
- viability, T/C [28]: 23%
- viability, T/C [29]: 36%
- viability, T/C [30]: 24.5%
- viability, T/C [31]: 54.4%
- viability, T/C [32]: 55.5%
- viability, T/C [33]: 38.7%
- viability, T/C [34]: 22.6%
- viability, T/C [35]: 32.8%
- viability, T/C [36]: 30.5%

SMILES: CC1COCCN1c1cc(-c2ccnn2C)c2ccnc(-c3ccn[nH]3)c2n1 (centres undefined) + COC1C(OC(N)=O)C(O)C(Oc2ccc3c(O)c(NC(=O)c4ccc(O)c(CC=C(C)C)c4)c(=O)oc3c2C)OC1(C)C
- IC50 (second compound 0.0316 µM): > 10000 nM
- IC50 (second compound 0.1 µM): > 10000 nM
- IC50 (second compound 0.316 µM): > 10000 nM
- IC50 (second compound 1 µM): > 10000 nM
- IC50 (second compound 3.16 µM): > 10000 nM
- IC50 (second compound 10 µM): > 10000 nM
- viability, T/C [1]: 87.7%
- viability, T/C [2]: 62%
- viability, T/C [3]: 42.2%
- viability, T/C [4]: 40%
- viability, T/C [5]: 85.1%
- viability, T/C [6]: 67.3%
- viability, T/C [7]: 90.1%
- viability, T/C [8]: 52.9%
- viability, T/C [9]: 39.8%
- viability, T/C [10]: 46.1%
- viability, T/C [11]: 87.3%
- viability, T/C [12]: 79.7%
- viability, T/C [13]: 96.5%
- viability, T/C [14]: 51.9%
- viability, T/C [15]: 35.3%
- viability, T/C [16]: 39%
- viability, T/C [17]: 88.5%
- viability, T/C [18]: 77%
- viability, T/C [19]: 77.5%
- viability, T/C [20]: 58.1%
- viability, T/C [21]: 43.3%
- viability, T/C [22]: 34.5%
- viability, T/C [23]: 77.9%
- viability, T/C [24]: 63.5%
- viability, T/C [25]: 82.6%
- viability, T/C [26]: 64.6%
- viability, T/C [27]: 39.9%
- viability, T/C [28]: 32%
- viability, T/C [29]: 88.1%
- viability, T/C [30]: 78.4%
- viability, T/C [31]: 82.7%
- viability, T/C [32]: 55.2%
- viability, T/C [33]: 46.2%
- viability, T/C [34]: 33.2%
- viability, T/C [35]: 81.1%
- viability, T/C [36]: 71.7%

— PubChem BioAssay AID1963844 (Molecular Pharmacology Branch, DTP, NCI, 2024)
